Data: US10681909B2, “Herbicidal triazoles” (FMC Corporation, priority 2014, dated 2020)

Assays:
deadnettle = assay: Test D preemergence; type: in vivo, Lamium amplexicaule; conditions: for Plant response rating (0 to 100), Deadnettle: 16 g ai/ha, 0 is no effect, 100 is complete control; for Plant response rating: Deadnettle: scale 0 to 100
From the text: (§1) Seeds of plant species selected from bluegrass (annual bluegrass, Poa annua), blackgrass (Alopecurus myosuroides), canarygrass (Phalaris minor), chickweed (common chickweed, Stellaria media), galium (catchweed bedstraw, Galium aparine), bromegrass, down (downy bromegrass, Bromus tectorum), Russian thistle (Salsola kali), field poppy (Papaver rhoeas), field violet (Viola arvensis), foxtail, green (green foxtail, Setaria viridis), deadnettle (henbit deadnettle, Lamium amplexicaule), ryegrass, Ital. (Italian ryegrass, Lolium multiflorum), kochia (Kochia scoparia), lambsquarters (Chenopodium album), oilseed rape (Brassica napus), pigweed (Amaranthus retroflexus), chamomile (scentless chamomile, Matricaria inodora), speedwell (bird's-eye speedwell, Veronica persica), barley, spring (spring barley, Hordeum vulgare), wheat, spring (spring wheat, Triticum aestivum), buckwheat, wild (wild buckwheat, Polygonum convolvulus), wild mustard (Sinapis arvensis), oat, wild (wild oat, Avena fatua), radish, wild (wild radish, Raphanus raphanistrum), […]), barley, winter (winter barley, Hordeum vulgare), and wheat, winter (winter wheat, Triticum aestivum) were planted into a silt loam soil and treated preemergence with test chemicals formulated in a non-phytotoxic solvent mixture which included a surfactant. At the same time, these species were planted in pots containing Sunshine Redi-Earth® planting medium comprising spaghnum peat moss, vermiculite, starter nutrients and dolomitic limestone and treated with postemergence applications of the test chemicals formulated in the same manner. Plants ranged in height from 2 to 18 cm (1- to 4-leaf stage). Treated plants and controls were maintained in a controlled growth environment for 14 to 21 d after which time all species were compared to controls and visually evaluated. […] A dash (-) response means no test result.

speedwell = assay: Test D postemergence; type: in vivo, Veronica persica; conditions: scale 0 to 100
From the text: as §1

lambsquarters = assay: Test C preemergence; type: in vivo, Chenopodium album; conditions: for Plant response rating (scale of 0 to 100 where 0 is no effect and 100 is complete control): Lambsquarters, preemergence; for Lambsquarters plant response rating (0 to 100): Preemergence, visual rating after 13 to 15 d
From the text: (§2) Seeds of plant species selected from blackgrass (Alopecurus myosuroides), ryegrass, Italian (Italian ryegrass, Lolium multiflorum), wheat (winter wheat, Triticum aestivum), galium (catchweed bedstraw, Galium aparine), corn (Zea mays), crabgrass, large (large crabgrass, Digitaria sanguinalis), foxtail, giant, (giant foxtail, Setaria faberii), johnsongrass (Sorghum halepense), lambsquarters (Chenopodium album), morningglory (Ipomoea coccinea), nutsedge, yellow (yellow nutsedge, Cyperus esculentus), pigweed (Amaranthus retroflexus), ragweed (common ragweed, Ambrosia elatior), soybean (Glycine max), barnyardgrass (Echinochloa crus-galli), oilseed rape (Brassica napus), waterhemp (common waterhemp, Amaranthus rudis), and velvetleaf (Abutilon theophrasti) were planted into a blend of loam soil and sand and treated preemergence with test chemicals formulated in a non-phytotoxic solvent mixture which included a surfactant. At the same time, plants selected from these crop and weed species and also chickweed (common chickweed, Stellaria media), oat, wild (wild oat, Avena fatua), and kochia (Kochia scoparia), were planted in pots containing Sunshine Redi-Earth® planting medium comprising spaghnum peat moss, vermiculite, starter nutrients and dolomitic limestone and treated with postemergence applications of test chemicals formulated in the same manner. Plants ranged in height from 2 to 18 cm (1- to 4-leaf stage) for postemergence treatments. […] A dash (-) response means no test result.

kochia = assay: Test D postemergence; type: in vivo, Kochia scoparia; conditions: scale 0 to 100
From the text: as §1

wheat, winter = assay: Test D postemergence; type: in vivo, Triticum aestivum; conditions: scale 0 to 100
From the text: as §1

wheat, spring = assay: Test D postemergence; type: in vivo, Triticum aestivum; conditions: scale 0 to 100
From the text: as §1

wild mustard = assay: Test D preemergence; type: in vivo, Sinapis arvensis; conditions: for Plant response rating (0 to 100), Mustard, Wild: 16 g ai/ha, 0 is no effect, 100 is complete control; for Plant response rating: Mustard, Wild: scale 0 to 100
From the text: as §1

buckwheat, wild = assay: Test D preemergence; type: in vivo, Polygonum convolvulus; conditions: for Plant response rating (0 to 100), Buckwheat, Wild: 16 g ai/ha, 0 is no effect, 100 is complete control; for Plant response rating: Buckwheat, Wild: scale 0 to 100
From the text: as §1

foxtail, giant = assay: Test C preemergence; type: in vivo, Setaria faberii; conditions: for Plant response rating (scale of 0 to 100 where 0 is no effect and 100 is complete control): Foxtail, Giant, preemergence; for Foxtail, Giant plant response rating (0 to 100): Preemergence, visual rating after 13 to 15 d
From the text: as §2

crabgrass, large = assay: Test C preemergence; type: in vivo, Digitaria sanguinalis; conditions: for Plant response rating (scale of 0 to 100 where 0 is no effect and 100 is complete control): Crabgrass, Large, preemergence; for Crabgrass, Large plant response rating (0 to 100): Preemergence, visual rating after 13 to 15 d
From the text: as §2

pigweed = assay: Test D preemergence; type: in vivo, Amaranthus retroflexus; conditions: for Plant response rating (0 to 100), Pigweed: 16 g ai/ha, 0 is no effect, 100 is complete control; for Plant response rating: Pigweed: scale 0 to 100
From the text: as §1

ryegrass, Italian = assay: Test C preemergence; type: in vivo, Lolium multiflorum; conditions: for Ryegrass, Italian plant response rating (0 to 100): Preemergence, visual rating after 13 to 15 d; for Plant response rating (scale of 0 to 100 where 0 is no effect and 100 is complete control): Ryegrass, Italian, preemergence
From the text: as §2

CCOc1nc(-c2ccccc2)nn1Cc1ccnc(C(F)(F)F)c1 [Compound 27]
Plant response rating (0 to 100), Deadnettle (deadnettle): 80 | Plant response rating: Deadnettle (deadnettle; 31 g ai/ha): 100 | Plant response rating: Deadnettle (deadnettle; 62 g ai/ha): 100 | Plant response rating: Deadnettle (deadnettle; 125 g ai/ha): 100 | Plant response rating: Speedwell (speedwell; 16 g ai/ha): 75 | Plant response rating: Speedwell (speedwell; 31 g ai/ha): 85 | Plant response rating: Speedwell (speedwell; 62 g ai/ha): 95 | Plant response rating: Speedwell (speedwell; 125 g ai/ha): 95 | Plant response rating (scale of 0 to 100 where 0 is no effect and 100 is complete control) (lambsquarters; 125 g ai/ha): 98 | Plant response rating (scale of 0 to 100 where 0 is no effect and 100 is complete control) (lambsquarters; 250 g ai/ha): 100 | Lambsquarters plant response rating (0 to 100) (lambsquarters; 31 g ai/ha): 90 | Lambsquarters plant response rating (0 to 100) (lambsquarters; 62 g ai/ha): 98 | Plant response rating: Kochia (kochia; 16 g ai/ha): 85 | Plant response rating: Kochia (kochia; 31 g ai/ha): 95 | Plant response rating: Kochia (kochia; 62 g ai/ha): 95 | Plant response rating: Kochia (kochia; 125 g ai/ha): 100 | Plant response rating: Wheat, Winter (wheat, winter; 16 g ai/ha): 25 | Plant response rating: Wheat, Winter (wheat, winter; 31 g ai/ha): 25 | Plant response rating: Wheat, Winter (wheat, winter; 62 g ai/ha): 30 | Plant response rating: Wheat, Winter (wheat, winter; 125 g ai/ha): 30 | Plant response rating: Wheat, Spring (wheat, spring; 16 g ai/ha): 15 | Plant response rating: Wheat, Spring (wheat, spring; 31 g ai/ha): 15 | Plant response rating: Wheat, Spring (wheat, spring; 62 g ai/ha): 20 | Plant response rating: Wheat, Spring (wheat, spring; 125 g ai/ha): 35 | Plant response rating (0 to 100), Mustard, Wild (wild mustard): 80 | Plant response rating: Mustard, Wild (wild mustard; 62 g ai/ha): 100 | Plant response rating: Mustard, Wild (wild mustard; 125 g ai/ha): 100 | Plant response rating (0 to 100), Buckwheat, Wild (buckwheat, wild): 65 | Plant response rating: Buckwheat, Wild (buckwheat, wild; 31 g ai/ha): 80 | Plant response rating: Buckwheat, Wild (buckwheat, wild; 62 g ai/ha): 70 | Plant response rating: Buckwheat, Wild (buckwheat, wild; 125 g ai/ha): 85 | Plant response rating (scale of 0 to 100 where 0 is no effect and 100 is complete control) (foxtail, giant; 125 g ai/ha): 100 | Plant response rating (scale of 0 to 100 where 0 is no effect and 100 is complete control) (foxtail, giant; 250 g ai/ha): 100 | Foxtail, Giant plant response rating (0 to 100) (foxtail, giant; 31 g ai/ha): 100 | Foxtail, Giant plant response rating (0 to 100) (foxtail, giant; 62 g ai/ha): 100 | Plant response rating (scale of 0 to 100 where 0 is no effect and 100 is complete control) (crabgrass, large; 125 g ai/ha): 100 | Plant response rating (scale of 0 to 100 where 0 is no effect and 100 is complete control) (crabgrass, large; 250 g ai/ha): 100 | Crabgrass, Large plant response rating (0 to 100) (crabgrass, large; 31 g ai/ha): 100 | Crabgrass, Large plant response rating (0 to 100) (crabgrass, large; 62 g ai/ha): 100 | Plant response rating (0 to 100), Pigweed (pigweed): 100 | Plant response rating: Pigweed (pigweed; 62 g ai/ha): 100 | Plant response rating: Pigweed (pigweed; 125 g ai/ha): 100 | Ryegrass, Italian plant response rating (0 to 100) (ryegrass, Italian; 31 g ai/ha): 25 | Ryegrass, Italian plant response rating (0 to 100) (ryegrass, Italian; 62 g ai/ha): 30 | Plant response rating (scale of 0 to 100 where 0 is no effect and 100 is complete control) (ryegrass, Italian; 125 g ai/ha): 90 | Plant response rating (scale of 0 to 100 where 0 is no effect and 100 is complete control) (ryegrass, Italian; 250 g ai/ha): 95

COc1nc(-c2ccc(Cl)cc2)nn1Cc1ccnc(C(F)(F)F)c1 [Compound 28]
Plant response rating (0 to 100), Deadnettle (deadnettle): 20 | Plant response rating: Deadnettle (deadnettle; 31 g ai/ha): 75 | Plant response rating: Deadnettle (deadnettle; 62 g ai/ha): 95 | Plant response rating: Deadnettle (deadnettle; 125 g ai/ha): 100 | Plant response rating: Speedwell (speedwell; 16 g ai/ha): 75 | Plant response rating: Speedwell (speedwell; 31 g ai/ha): 75 | Plant response rating: Speedwell (speedwell; 62 g ai/ha): 85 | Plant response rating: Speedwell (speedwell; 125 g ai/ha): 80 | Plant response rating: Kochia (kochia; 16 g ai/ha): 85 | Plant response rating: Kochia (kochia; 31 g ai/ha): 85 | Plant response rating: Kochia (kochia; 62 g ai/ha): 85 | Plant response rating: Kochia (kochia; 125 g ai/ha): 95 | Plant response rating: Wheat, Winter (wheat, winter; 16 g ai/ha): 15 | Plant response rating: Wheat, Winter (wheat, winter; 31 g ai/ha): 20 | Plant response rating: Wheat, Winter (wheat, winter; 62 g ai/ha): 25 | Plant response rating: Wheat, Winter (wheat, winter; 125 g ai/ha): 20 | Plant response rating: Wheat, Spring (wheat, spring; 16 g ai/ha): 10 | Plant response rating: Wheat, Spring (wheat, spring; 31 g ai/ha): 15 | Plant response rating: Wheat, Spring (wheat, spring; 62 g ai/ha): 20 | Plant response rating: Wheat, Spring (wheat, spring; 125 g ai/ha): 25 | Plant response rating (0 to 100), Mustard, Wild (wild mustard): 90 | Plant response rating: Mustard, Wild (wild mustard; 62 g ai/ha): 100 | Plant response rating: Mustard, Wild (wild mustard; 125 g ai/ha): 100 | Plant response rating (0 to 100), Buckwheat, Wild (buckwheat, wild): 60 | Plant response rating: Buckwheat, Wild (buckwheat, wild; 31 g ai/ha): 65 | Plant response rating: Buckwheat, Wild (buckwheat, wild; 62 g ai/ha): 75 | Plant response rating: Buckwheat, Wild (buckwheat, wild; 125 g ai/ha): 95 | Plant response rating (0 to 100), Pigweed (pigweed): 100 | Plant response rating: Pigweed (pigweed; 62 g ai/ha): 100 | Plant response rating: Pigweed (pigweed; 125 g ai/ha): 100
